Laboratory results: PubChem BioAssay (NCI)
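Interpolation was linear, between the two tested concentrations surrounding the appropriate level; five concentrations were tested over 48 hours in 96-well plates. Here, GI50 denotes the concentration required for 50% inhibition of growth. TGI: total growth inhibition.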

Columns and labels:
Assay in all cases: inhibition of tumour cell growth, NCI panel, 48 h
SK-MEL-5 melanoma = tested on: SK-MEL-5 melanoma
UACC-257 melanoma = tested on: UACC-257 melanoma
KM12 colon = tested on: KM12 colon
RXF 393 renal = tested on: RXF 393 renal
COLO 205 colon = tested on: COLO 205 colon
SNB-75 CNS = tested on: SNB-75 CNS
SW-620 colon = tested on: SW-620 colon
OVCAR-8 ovarian = tested on: OVCAR-8 ovarian
SK-MEL-28 melanoma = tested on: SK-MEL-28 melanoma
SNB-19 CNS = tested on: SNB-19 CNS
SK-MEL-2 melanoma = tested on: SK-MEL-2 melanoma
ACHN renal = tested on: ACHN renal
MDA-MB-435 = tested on: MDA-MB-435
BT-549 breast = tested on: BT-549 breast
U251 CNS = tested on: U251 CNS
UACC-62 melanoma = tested on: UACC-62 melanoma
K-562 leukemia = tested on: K-562 leukemia
OVCAR-4 ovarian = tested on: OVCAR-4 ovarian
TK-10 renal = tested on: TK-10 renal
A498 renal = tested on: A498 renal
A549 NSCLC = tested on: A549 NSCLC
LOX IMVI melanoma = tested on: LOX IMVI melanoma
SF-539 CNS = tested on: SF-539 CNS
MALME-3M melanoma = tested on: MALME-3M melanoma
HL-60(TB) leukemia = tested on: HL-60(TB) leukemia
SR leukemia = tested on: SR leukemia
NCI-H23 lung = tested on: NCI-H23 lung
DU-145 prostate = tested on: DU-145 prostate
OVCAR-3 ovarian = tested on: OVCAR-3 ovarian
HCT-15 colon = tested on: HCT-15 colon
OVCAR-5 ovarian = tested on: OVCAR-5 ovarian
SF-268 CNS = tested on: SF-268 CNS
SF-295 CNS = tested on: SF-295 CNS
NCI/ADR-RES ovarian = tested on: NCI/ADR-RES ovarian
NCI-H522 lung = tested on: NCI-H522 lung
CCRF-CEM leukemia = tested on: CCRF-CEM leukemia
SN12C renal = tested on: SN12C renal
PC-3 prostate = tested on: PC-3 prostate
SK-OV-3 ovarian = tested on: SK-OV-3 ovarian
EKVX NSCLC = tested on: EKVX NSCLC
MCF7 breast = tested on: MCF7 breast
HOP-92 NSCLC = tested on: HOP-92 NSCLC
CAKI-1 renal = tested on: CAKI-1 renal
MDA-MB-231 breast = tested on: MDA-MB-231 breast
M14 melanoma = tested on: M14 melanoma
T-47D breast = tested on: T-47D breast
UO-31 renal = tested on: UO-31 renal
MOLT-4 leukemia = tested on: MOLT-4 leukemia
RPMI-8226 leukemia = tested on: RPMI-8226 leukemia
HCC-2998 colon = tested on: HCC-2998 colon
HOP-62 NSCLC = tested on: HOP-62 NSCLC
IGROV1 ovarian = tested on: IGROV1 ovarian
HCT-116 colon = tested on: HCT-116 colon
NCI-H460 lung = tested on: NCI-H460 lung
786-0 renal = tested on: 786-0 renal
HS 578T breast = tested on: HS 578T breast
NCI-H226 lung = tested on: NCI-H226 lung

O=C1c2c(c(=O)[nH]c3ccccc23)[C@H](c2ccccc2)[C@@H]2CCCN12
GI50 (SK-MEL-5 melanoma): 2.01 µM
TGI (SK-MEL-5 melanoma): 5.07 µM
GI50 (UACC-257 melanoma): 5.13 µM
TGI (UACC-257 melanoma): 53 µM
GI50 (KM12 colon): 3.08 µM
TGI (KM12 colon): 13.6 µM
GI50 (RXF 393 renal): 1.88 µM
TGI (RXF 393 renal): 4.34 µM
GI50 (COLO 205 colon): 14.6 µM
TGI (COLO 205 colon): 44.5 µM
GI50 (SNB-75 CNS): 2.64 µM
TGI (SNB-75 CNS): 16.9 µM
GI50 (SW-620 colon): 3.38 µM
TGI (SW-620 colon): > 100 µM
GI50 (OVCAR-8 ovarian): 3.62 µM
TGI (OVCAR-8 ovarian): > 100 µM
GI50 (SK-MEL-28 melanoma): 3.69 µM
TGI (SK-MEL-28 melanoma): 32.9 µM
GI50 (SNB-19 CNS): 3.93 µM
TGI (SNB-19 CNS): > 100 µM
GI50 (SK-MEL-2 melanoma): 4.17 µM
TGI (SK-MEL-2 melanoma): 46.7 µM
GI50 (ACHN renal): 2.64 µM
TGI (ACHN renal): 14.9 µM
GI50 (MDA-MB-435): 3.7 µM
TGI (MDA-MB-435): 15.2 µM
GI50 (BT-549 breast): 4.84 µM
TGI (BT-549 breast): 55.2 µM
GI50 (U251 CNS): 3.37 µM
TGI (U251 CNS): 18.3 µM
GI50 (UACC-62 melanoma): 3.14 µM
TGI (UACC-62 melanoma): 22.3 µM
GI50 (K-562 leukemia): 5.63 µM
TGI (K-562 leukemia): > 100 µM
GI50 (OVCAR-4 ovarian): 2.63 µM
TGI (OVCAR-4 ovarian): 11.6 µM
GI50 (TK-10 renal): 20.5 µM
TGI (TK-10 renal): > 100 µM
GI50 (A498 renal): 1.93 µM
TGI (A498 renal): 9.09 µM
GI50 (A549 NSCLC): 20.2 µM
TGI (A549 NSCLC): > 100 µM
GI50 (LOX IMVI melanoma): 2.3 µM
TGI (LOX IMVI melanoma): 11.8 µM
GI50 (SF-539 CNS): 2.6 µM
TGI (SF-539 CNS): 6.7 µM
GI50 (MALME-3M melanoma): 6.87 µM
TGI (MALME-3M melanoma): 43.8 µM
GI50 (HL-60(TB) leukemia): 1.98 µM
TGI (HL-60(TB) leukemia): 8.29 µM
GI50 (SR leukemia): 2.61 µM
TGI (SR leukemia): 36.7 µM
GI50 (NCI-H23 lung): 2.77 µM
TGI (NCI-H23 lung): 37.9 µM
GI50 (DU-145 prostate): 3.38 µM
TGI (DU-145 prostate): 27.5 µM
GI50 (OVCAR-3 ovarian): 2.46 µM
TGI (OVCAR-3 ovarian): 7.1 µM
GI50 (HCT-15 colon): 3.37 µM
TGI (HCT-15 colon): > 100 µM
GI50 (OVCAR-5 ovarian): 2.7 µM
TGI (OVCAR-5 ovarian): 9.59 µM
GI50 (SF-268 CNS): 3.68 µM
TGI (SF-268 CNS): 23 µM
GI50 (SF-295 CNS): 8.72 µM
TGI (SF-295 CNS): 47.8 µM
GI50 (NCI/ADR-RES ovarian): 3.05 µM
TGI (NCI/ADR-RES ovarian): 36.4 µM
GI50 (NCI-H522 lung): 8.56 µM
TGI (NCI-H522 lung): > 100 µM
GI50 (CCRF-CEM leukemia): 4.61 µM
TGI (CCRF-CEM leukemia): > 100 µM
GI50 (SN12C renal): 3.38 µM
TGI (SN12C renal): > 100 µM
GI50 (PC-3 prostate): 6.2 µM
TGI (PC-3 prostate): > 100 µM
GI50 (SK-OV-3 ovarian): 9.56 µM
TGI (SK-OV-3 ovarian): 80 µM
GI50 (EKVX NSCLC): 13.5 µM
TGI (EKVX NSCLC): 55.8 µM
GI50 (MCF7 breast): 2.57 µM
TGI (MCF7 breast): 9.38 µM
GI50 (HOP-92 NSCLC): 2.94 µM
TGI (HOP-92 NSCLC): 15.7 µM
GI50 (CAKI-1 renal): 17.6 µM
TGI (CAKI-1 renal): 68.2 µM
GI50 (MDA-MB-231 breast): 3.06 µM
TGI (MDA-MB-231 breast): 27.5 µM
GI50 (M14 melanoma): 3.53 µM
TGI (M14 melanoma): 14.5 µM
GI50 (T-47D breast): 3.46 µM
TGI (T-47D breast): 9.2 µM
GI50 (UO-31 renal): 2.1 µM
TGI (UO-31 renal): 7.05 µM
GI50 (MOLT-4 leukemia): 5.12 µM
TGI (MOLT-4 leukemia): 39.2 µM
GI50 (RPMI-8226 leukemia): 4.83 µM
TGI (RPMI-8226 leukemia): 48.4 µM
GI50 (HCC-2998 colon): 10.9 µM
TGI (HCC-2998 colon): 69.6 µM
GI50 (HOP-62 NSCLC): 4.32 µM
TGI (HOP-62 NSCLC): 34 µM
GI50 (IGROV1 ovarian): 3.59 µM
TGI (IGROV1 ovarian): 15.6 µM
GI50 (HCT-116 colon): 2.54 µM
TGI (HCT-116 colon): > 100 µM
GI50 (NCI-H460 lung): 2.83 µM
TGI (NCI-H460 lung): 16.5 µM
GI50 (786-0 renal): 4.61 µM
TGI (786-0 renal): > 100 µM
GI50 (HS 578T breast): 2.89 µM
TGI (HS 578T breast): 11.1 µM
GI50 (NCI-H226 lung): 2.05 µM
TGI (NCI-H226 lung): 13.8 µM
